The text below walks through data of ChEMBL document CHEMBL2311451, “Discovery of a selective M₄ positive allosteric modulator based on the 3-amino-thieno[2,3-b]pyridine-2-carboxamide scaffold: development of ML253, a potent and brain penetrant compound that is active in a preclinical model of schizophrenia” (Bioorg Med Chem Lett, 2013).

Test [1] addresses T1, Muscarinic acetylcholine receptor M4 (Homo sapiens) (UniProt P08173).
T1 sequence (whole entry): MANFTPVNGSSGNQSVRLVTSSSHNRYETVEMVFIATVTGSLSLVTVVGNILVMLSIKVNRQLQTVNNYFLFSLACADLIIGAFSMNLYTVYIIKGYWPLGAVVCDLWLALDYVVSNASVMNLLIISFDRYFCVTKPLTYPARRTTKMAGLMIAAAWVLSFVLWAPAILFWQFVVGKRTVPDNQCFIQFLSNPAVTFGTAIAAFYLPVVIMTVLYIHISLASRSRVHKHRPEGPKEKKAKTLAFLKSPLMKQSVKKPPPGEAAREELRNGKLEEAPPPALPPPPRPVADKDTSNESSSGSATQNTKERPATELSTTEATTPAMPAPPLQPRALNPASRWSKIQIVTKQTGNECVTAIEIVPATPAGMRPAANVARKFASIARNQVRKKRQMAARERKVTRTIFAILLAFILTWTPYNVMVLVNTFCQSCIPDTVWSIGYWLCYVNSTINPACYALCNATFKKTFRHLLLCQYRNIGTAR
Kind of test: Positive allosteric modulation of human muscarinic M4 receptor expressed in CHO-K1 cells assessed as leftward shift in acetylcholine response treated for 144 secs prior to acetylcholine addition measured for 5 mins by Fluo-4-AM based calcium mobilization assay relative to control. The class given is functional, cell-based. (In general: Calcium assays in cells follow changes in intracellular calcium, usually with a dye or a luminescent sensor.)

Test [2] deals with T2, Muscarinic acetylcholine receptor M4 (Homo sapiens, UniProt P08173).
T2 sequence (P08173 whole entry): T1 sequence (whole entry)
Kind of test: Positive allosteric modulation of human muscarinic M4 receptor expressed in CHO-K1 cells assessed as leftward shift in acetylcholine response treated for 144 secs prior to acetylcholine addition measured for 5 mins by Fluo-4-AM based calcium mobilization assay. The test is classed as functional, cell-based.

Where only a bound is given, the exact number is not on record here.

As for `Cc1nc2sc(C(=O)NCc3cnccn3)c(N)c2c(C)c1Cl`, the %max in test [1] is 83.1%. In test [2] (read-out: EC50), the EC50 was 294 nM.

As to `COc1ccc(CNC(=O)c2sc3nc(C)c(Cl)c(C)c3c2N)cc1`, the %max in test [1] came out at 83.6%. Further, the EC50 in test [2] (read-out: EC50) worked out at 107 nM.

With `Cc1nc2sc(C(=O)NCCc3cccnc3)c(N)c2c(C)c1Cl`, in test [2] (read-out: pEC50 (converted)), the EC50 is above 30200 nM.

Turning to `Cc1nc2sc(C(=O)NCc3ccc(F)c(F)c3)c(N)c2c(C)c1Cl`, in test [1], the %max came out at 42%. Further, in test [2] (read-out: EC50), the EC50 came to 160 nM.

On to `Cc1nc2sc(C(=O)NC(C)c3ccncc3)c(N)c2c(C)c1Cl` (centres undefined), for which, in test [1], the %max was found to be 64.1%. Moreover, in test [2] (read-out: EC50), the EC50 was found to be 600 nM.

As for `Cc1nc2sc(C(=O)NC(C)(C)C)c(N)c2c(C)c1Cl`, the %max in test [1] stood at 68.3%. Also, in test [2] (read-out: EC50), the EC50 stood at 307 nM.

As to `Cc1nc2sc(C(=O)NCc3ccc(Cl)cc3)c(N)c2c(C)c1Cl`, in test [1], the %max was determined as 33.2%. The EC50 in test [2] (read-out: EC50) is 180 nM.

With `COc1ccc(NC(=O)c2sc3nc(C)c(Cl)c(C)c3c2N)cc1`, in test [1], the %max worked out at 30.7%. The EC50 in test [2] (read-out: EC50) was above 10000 nM.

For the compound `Cc1nc2sc(C(=O)NCc3ccccc3N(C)C)c(N)c2c(C)c1Cl`, in test [2] (read-out: EC50), the EC50 was above 30000 nM.

As for `Cc1nc2sc(C(=O)NC3COC3)c(N)c2c(C)c1Cl`, in test [1], the %max stood at 69.9%. Besides, in test [2] (read-out: EC50), the EC50 stood at 2010 nM.

For `Cc1nc2sc(C(=O)NCc3ccccc3)c(N)c2c(C)c1Cl`, in test [1], the %max worked out at 81%. For the same compound, the EC50 in test [2] (read-out: EC50) was 108 nM.

With `Cc1nc2sc(C(=O)NCc3ccccc3Cl)c(N)c2c(C)c1Cl`, the %max in test [1] was determined as 32.4%. Moreover, in test [2] (read-out: EC50), the EC50 came out at 160 nM.

Regarding `Cc1nc2sc(C(=O)NCCC3CCCN3C)c(N)c2c(C)c1Cl` (centres undefined), the %max in test [1] amounted to 38%. In addition, the EC50 in test [2] (read-out: EC50) worked out at 926 nM.

With `CCOc1ccc(NC(=O)c2sc3nc(C)c(Cl)c(C)c3c2N)cc1`, the EC50 in test [2] (read-out: EC50) was above 30000 nM.

Regarding `Cc1nc2sc(C(=O)NC(C)c3cccnc3)c(N)c2c(C)c1Cl` (centres undefined), the %max in test [1] was determined as 57.3%. Further, the EC50 in test [2] (read-out: EC50) worked out at 669 nM.

In the case of `Cc1nc2sc(C(=O)NC3CCOCC3)c(N)c2c(C)c1Cl`, the %max in test [1] stood at 78.6%. Also, in test [2] (read-out: EC50), the EC50 was 289 nM.

With `Cc1nc2sc(C(=O)NCc3ccc4c(c3)OCO4)c(N)c2c(C)c1Cl`, the %max in test [1] turned out to be 71.7%. Moreover, the EC50 in test [2] (read-out: EC50) worked out at 80 nM.

On to `COCCCNC(=O)c1sc2nc(C)c(Cl)c(C)c2c1N`, for which, in test [1], the %max is 85.7%. The EC50 in test [2] (read-out: EC50) amounted to 418 nM.

`Cc1nc2sc(C(=O)NCc3ccncn3)c(N)c2c(C)c1Cl`: the %max in test [1] was 78.5%. Moreover, in test [2] (read-out: EC50), the EC50 is 271 nM.

For the compound `Cc1nc2sc(C(=O)NCc3ccnnc3)c(N)c2c(C)c1Cl`, the %max in test [1] is 74.5%. For the same compound, the EC50 in test [2] (read-out: EC50) is 326 nM.

For `Cc1nc2sc(C(=O)NC3CCOC3)c(N)c2c(C)c1Cl` (centres undefined), the %max in test [1] is 92.2%. Also, in test [2] (read-out: EC50), the EC50 was found to be 52 nM.

In the case of `Cc1nc2sc(C(=O)NCc3cccc(F)c3F)c(N)c2c(C)c1Cl`, in test [1], the %max was 79.5%. Further, the EC50 in test [2] (read-out: EC50) amounted to 124 nM.

As for `Cc1nc2sc(C(=O)NCc3ncccn3)c(N)c2c(C)c1Cl`, the %max in test [1] amounted to 51%. Also, the EC50 in test [2] (read-out: EC50) amounted to 810 nM.

As to `Cc1nc2sc(C(=O)NCc3nccs3)c(N)c2c(C)c1Cl`, the %max in test [1] stood at 65.1%. In addition, in test [2] (read-out: EC50), the EC50 worked out at 249 nM.

Turning to `Cc1ccc(CNC(=O)c2sc3nc(C)c(Cl)c(C)c3c2N)cc1`, the %max in test [1] was 46.8%. In test [2] (read-out: EC50), the EC50 was 104 nM.

As to `Cc1nc2sc(C(=O)NCc3ccccn3)c(N)c2c(C)c1Cl`, the %max in test [1] stood at 74.1%. Further, in test [2] (read-out: EC50), the EC50 worked out at 356 nM.

For `Cc1cc(CNC(=O)c2sc3nc(C)c(Cl)c(C)c3c2N)ccn1`, in test [1], the %max is 75.8%. Further, the EC50 in test [2] (read-out: EC50) came to 61 nM.

Turning to `Cc1nc2sc(C(=O)NCCc3ccncc3)c(N)c2c(C)c1Cl`, in test [1], the %max was found to be 74.5%. In test [2] (read-out: EC50), the EC50 worked out at 128 nM.

With `Cc1nc2sc(C(=O)NC(C)C)c(N)c2c(C)c1Cl`, the %max in test [1] is 77.3%. The EC50 in test [2] (read-out: EC50) worked out at 147 nM.

As for `Cc1nc2sc(C(=O)NCC3CCCCC3)c(N)c2c(C)c1Cl`, in test [1], the %max is 69.7%. The EC50 in test [2] (read-out: EC50) is 1410 nM.

With `Cc1nc2sc(C(=O)NCc3ccc(C(F)(F)F)cc3)c(N)c2c(C)c1Cl`, the %max in test [1] was 33.6%. Further, the EC50 in test [2] (read-out: EC50) is 1750 nM.
